# Where two headings read alike, the source gives them in different places.
# Experiments:
# [1] = test system: HCV replicon; experiment: microbe, parasite or virus in culture; format: cell-based, hepatitis C virus; details: Hepatitis C virus
SMILES,IC50 ([1]; read-out: Replicon IC50 μM) [µM],melting point [°C],IC50 ([1]; read-out: Replicon IC50) [µM]
"CCn1c(-c2ccc(OCCN3CCOCC3)cc2)c(C#N)c2ccc(OC)cc21 [Compound 261, 1-ethyl-6-methoxy-2-[4-(2-morpholin-4-yl-ethoxy)-phenyl]-1H-indole-3-carbonitrile]",0.5 to 2,138 to 143,–
"CCn1c(-c2ccc(N3CCN(C)S3(=O)=O)cc2)c(C#N)c2ccc(OC)cc21 [Compound 726, 1-ethyl-6-methoxy-2-[4-(5-methyl-1,1-dioxo-1λ^6-[1,2,5]thiadiazolidin-2-yl)-phenyl]-1H-indole-3-carbonitrile]",0.5 to 2,221 to 222,–
"CCOc1ccc2c(C#N)c(-c3ccc(N4C(=O)CNC4=O)cc3)n(CC)c2c1 [Compound 779, 2-[4-(2,5-dioxo-imidazolidin-1-yl)-phenyl]-6-ethoxy-1-ethyl-1H-indole-3-carbonitrile]",< 0.5,265 to 267,–
"CCn1c(-c2ccc(NS(C)(=O)=O)cc2)c(C#N)c2ccc(OC)cc21 [Compound 129, N-[4-(3-Cyano-1-ethyl-6-methoxy-1H-indol-2-yl)-phenyl]-methanesulfonamide]",0.5 to 2,188 to 190,–
"CCn1cc(C#N)c2cc(-c3ccsc3)ccc21 [Compound 141, 1-ethyl-5-thiophen-3-yl-1H-indole-3-carbonitrile]",> 2,145 to 146,–
"CCOc1ccc(-c2c(C#N)c3ccc(NC(=O)OC(C)(C)C)cc3n2CC)cc1 [Compound 832, [3-cyano-2-(4-ethoxy-phenyl)-1-ethyl-1H-indol-6-yl]-carbamic acid tert-butyl ester]",0.5 to 2,206 to 207,–
"CCn1c(-c2ccc(OCCBr)cc2)c(C#N)c2ccc(OC)cc21 [Compound 253, 2-[4-(2-bromoethoxy)-phenyl]-1-ethyl-6-methoxy-1H-indole-3-carbonitrile]",0.5 to 2,121 to 125,–
"CCn1cc(-c2cc(-c3ccc(OC)cc3)on2)c2ccc(OC)cc21 [Compound 116, 1-ethyl-6-methoxy-3-[5-(4-methoxyphenyl)-isoxazol-3-yl]-1H-indole]",> 2,116 to 118,–
"CCOc1ccc2c(C(=O)N(C)C)c(-c3ccc(N4C(=O)C(C)N(C)C4=O)cc3)n(CC)c2c1 (stereo not drawn) [Compound 780, N,N-Dimethyl-2-[4-(3,4-dimethyl-2,5-dioxo-imidazolidin-1-yl)-phenyl]-6-ethoxy-1-ethyl-1H-indole-3-carboxamide]",0.5 to 2,219 to 220,–
"CCNC(=O)NCCOc1ccc(-c2c(C#N)c3ccc(OC)cc3n2CC)cc1 [Compound 279, 1-{2-[4-(3-cyano-1-ethyl-6-methoxy-1H-indol-2-yl)-phenoxy]ethyl}-3-ethyl-urea]",> 2,197 to 202,–
"CCn1c(-c2ccc(N)cc2)c(C#N)c2ccc(OC)cc21 [Compound 55, 2-(4-aminophenyl)-1-ethyl-6-methoxy-1H-indole-3-carbonitrile]",> 2,183 to 185,–
"CCOc1ccc(-c2c(C#N)c3ccc(N)cc3n2CC)cc1 [Compound 833, 6-amino-2-(4-ethoxyphenyl)-1-ethyl-1H-indole-3-carbonitrile]",0.5 to 2,183 to 185,–
"CCn1c(N2CCN(S(=O)(=O)C3CC3)CC2)c(C#N)c2ccc(C(F)(F)F)cc21 [Compound 842, 2-[4-(cyclopropylsulfonyl)piperazin-1-yl]-1-ethyl-6-(trifluoromethyl)-1H-indole-3-carbonitrile]",> 2,170 to 171,–
"CCn1c(C#Cc2ccc(NC=O)cc2)c(C#N)c2ccc(OC)cc21 [Compound 241, N-[4-(3-cyano-1-ethyl-6-methoxy-1H-indol-2-ylethynyl)-phenyl]-formamide]",> 2,184 to 188,–
"CCn1c(-c2ccc(NS(C)(=O)=O)cc2)c(C#N)c2ccc(OCCN3CCOCC3)cc21 [Compound 478, N-{4-[3-cyano-1-ethyl-6-(2-morpholin-4-yl-ethoxy)-1H-indol-2-yl]-phenyl}methanesulfonamide]",–,172 to 175,< 0.5
"CCOC(=O)CNC(=O)Nc1ccc(-c2c(C#N)c3ccc(OCC)cc3n2CC)cc1 [Compound 773, ethyl {3-[4-(3-cyano-6-ethoxy-1-ethyl-1H-indol-2-yl)-phenyl]-ureido}-acetate]",0.5 to 2,191 to 193,–
"CCn1c(-c2ccc(OCCNC=O)cc2)c(C#N)c2ccc(OC)cc21 [Compound 280, N-{2-[4-(3-cyano-1-ethyl-6-methoxy-1H-indol-2-yl)-phenoxy]ethyl}formamide]",> 2,89 to 95,–
"CCn1c(C#Cc2ccc(NS(C)(=O)=O)cc2)c(C#N)c2ccc(OC)cc21 [Compound 130, N-[4-(3-cyano-1-ethyl-6-methoxy-1H-indol-2-ylethynyl)-phenyl]-methanesulfonamide]",< 0.5,227 to 233,–
"CCn1c(-c2ccc(N3CCCS3(=O)=O)cc2)c(C#N)c2ccc(OC)cc21 [Compound 84, 2-[4-(1,1-dioxo-1λ^6-isothiazolidin-2-yl)phenyl]-1-ethyl-6-methoxy-1H-indole-3-carbonitrile]",< 0.5,232 to 237,–
"CCn1c(-c2ccc(N(C)S(C)(=O)=O)cc2)c(C#N)c2ccc(OC)cc21 [Compound 180, N-[4-(3-cyano-1-ethyl-6-methoxy-1H-indol-2-yl)-phenyl]-N-methyl methanesulfonamide]",0.5 to 2,170 to 171,–
"CCn1c(-c2ccc3[nH]c(=O)oc3c2)c(C#N)c2ccc(OC)cc21 [Compound 340, 1-ethyl-6-methoxy-2-(2-oxo-2,3-dihydro-benzooxazol-6-yl)-1H-indole-3-carbonitrile]",> 2,243 to 248,–
"CCn1c(-c2ccc(OCCN)cc2)c(C#N)c2ccc(OC)cc21 [Compound 267, 2-[4-(2-aminoethoxy)phenyl]-1-ethyl-6-methoxy-1H-indole-3-carbonitrile]",> 2,106 to 112,–
"CCOc1ccc2c(C#N)c(-c3ccc(NC(=O)NC(Cc4ccccc4)C(=O)OC)cc3)n(CC)c2c1 (stereo not drawn) [Compound 777, methyl 2-{3-[4-(3-cyano-6-ethoxy-1-ethyl-1H-indol-2-yl)-phenyl]-ureido}-3-phenyl-propionate]",< 0.5,124 to 127,–
"CCn1c(-c2ccc(O)c(N)c2)c(C#N)c2ccc(OC)cc21 [Compound 322, 2-(3-amino-4-hydroxyphenyl)-1-ethyl-6-methoxy-1H-indole-3-carbonitrile]",> 2,223 to 230,–
"CCn1cc(-c2ccccc2)c2cc([N+](=O)[O-])ccc21 [Compound 41, N-ethyl-3-phenyl-5-nitroindole]",> 2,155 to 175,–
"CCn1cc(-c2ccno2)c2ccc(OC)cc21 [Compound 58, 1-ethyl-3-isoxazol-5-yl-6-methoxy-1H-indole]",> 2,76 to 79,–
"CCOC(=O)c1c(C)n(-c2ccc(OC)cc2)c2ccc(OC(F)F)cc12 [Compound 49, ethyl 5-difluoromethoxy-1-(4-methoxyphenyl)-2-methyl-1H-indole-3-carboxylate]",> 2,89 to 90,–

# From patent publication US7868037B2 (PTC Therapeutics, Inc., priority 2004, dated 2011)
